{"source": "ChEMBL document CHEMBL5360614", "about": "“Quinoline Thiourea-Based Zinc Ionophores with Antibacterial Activity” (J Med Chem, 2023)", "key": {"Staphylococcus aureus [1]": {"test_system": "Staphylococcus aureus", "experiment": "(§1) Antibacterial activity against gentamicin-and methicillin-resistant Staphylococcus aureus ATCC 33592 assessed as reduction in bacterial growth incubated for 14 to 16 hrs in presence of 200 uM ZnCl2 by microbroth dilution method", "format": "functional", "conditions": "time 14-16 hrs"}, "Staphylococcus aureus [2]": {"test_system": "Staphylococcus aureus", "experiment": "Potency index, ratio of compound MIC to compound MIC in presence of 1 uM 1-(2-(1H-benzo[d]imidazol-1-yl)quinolin-8-yl)-3-(3,5-bis(trifluoromethyl)phenyl)thiourea and 200 uM ZnCl2 for antibacterial activity against gentamicin-and methicillin-resistant Staphylococcus aureus ATCC 33592", "format": "functional"}, "Staphylococcus aureus [3]": {"test_system": "Staphylococcus aureus", "experiment": "as §1, with “1” for “200”, “1-(2-(1H-benzo[d]imidazol-1-yl)quinolin-8-yl)-3-(3,5-bis(trifluoromethyl)phenyl)thiourea” for “ZnCl2”", "format": "functional", "conditions": "time 14-16 hrs"}, "Staphylococcus aureus [4]": {"test_system": "Staphylococcus aureus", "experiment": "as §1, with “of 1 uM 1-(2-(1H-benzo[d]imidazol-1-yl)quinolin-8-yl)-3-(3,5-bis(trifluoromethyl)phenyl)thiourea and” for “of”", "format": "functional", "conditions": "time 14-16 hrs"}, "Staphylococcus aureus [5]": {"test_system": "Staphylococcus aureus", "experiment": "as §1, with “1 uM 1-(2-(1H-benzo[d]imidazol-1-yl)quinolin-8-yl)-3-(3,5-bis(trifluoromethyl)phenyl)thiourea and 50” for “200”", "format": "functional", "conditions": "time 14-16 hrs"}, "Staphylococcus aureus [6]": {"test_system": "Staphylococcus aureus", "experiment": "(§2) Antibacterial activity against gentamicin-and methicillin-resistant Staphylococcus aureus ATCC 33592 assessed as reduction in bacterial growth incubated for 14 to 16 hrs in presence of 100 uM ZnCl2 by microbroth dilution method", "format": "functional", "conditions": "time 14-16 hrs"}, "Staphylococcus aureus [7]": {"test_system": "Staphylococcus aureus", "experiment": "Antibacterial activity against gentamicin-and methicillin-resistant Staphylococcus aureus ATCC 33592 assessed as reduction in bacterial growth incubated for 14 to 16 hrs by microbroth dilution method", "format": "functional", "conditions": "time 14-16 hrs"}, "Staphylococcus aureus [8]": {"test_system": "Staphylococcus aureus", "experiment": "as §2, with “of 1 uM 1-(2-(1H-benzo[d]imidazol-1-yl)quinolin-8-yl)-3-(3,5-bis(trifluoromethyl)phenyl)thiourea and” for “of”", "format": "functional", "conditions": "time 14-16 hrs"}, "Staphylococcus aureus [9]": {"test_system": "Staphylococcus aureus", "experiment": "as §1, with “2 uM 1-(2-(1H-benzo[d]imidazol-1-yl)quinolin-8-yl)-3-(3,5-bis(trifluoromethyl)phenyl)thiourea and 50” for “200”", "format": "functional", "conditions": "time 14-16 hrs"}, "Cell membrane": {"test_system": "Cell membrane", "experiment": "Induction of cell membrane depolarization in Staphylococcus aureus MTCC-96 assessed as increase in fluorescence intensity at 30 uM by DiSC3-5 dye based fluorescence method", "format": "subcellular", "conditions": "filed as opener"}, "Staphylococcus aureus [10]": {"test_system": "Staphylococcus aureus", "experiment": "Antibacterial activity against Staphylococcus aureus MTCC-96 assessed as reduction in bacterial growth incubated for 14 to 16 hrs by microbroth dilution method", "format": "functional", "conditions": "time 14-16 hrs"}, "Escherichia coli": {"test_system": "Escherichia coli", "experiment": "Antibacterial activity against Escherichia coli MTCC 1687 assessed as reduction in bacterial growth incubated for 14 to 16 hrs by microbroth dilution method", "format": "functional", "conditions": "time 14-16 hrs"}, "Staphylococcus aureus [11]": {"test_system": "Staphylococcus aureus", "experiment": "Disruption of membrane integrity in Staphylococcus aureus MTCC-96 assessed as increase in fluorescence intensity by PI staining based fluorescence analysis", "format": "functional, organism-based"}, "Staphylococcus aureus [12]": {"test_system": "Staphylococcus aureus", "experiment": "In vivo antibacterial activity against Staphylococcus aureus MTCC-96 infected in Balb/c mouse assessed as liver central vein with minimum infiltration at 523.455 microM/Kg, iv for 7 days by hematoxylin and eosin staining based microscopic analysis", "format": "functional, organism-based", "conditions": "time 7.0 day"}, "Staphylococcus aureus [13]": {"test_system": "Staphylococcus aureus", "experiment": "In vivo antibacterial activity against Staphylococcus aureus MTCC-96 infected in Balb/c mouse assessed as bacterial load by measuring CFU in liver at 523.455 microM/Kg, iv for 7 days by CFU assay (Rvb= 719 CFU)", "format": "functional, organism-based", "conditions": "time 7.0 day"}, "Staphylococcus aureus [14]": {"test_system": "Staphylococcus aureus", "experiment": "In vivo antibacterial activity against Staphylococcus aureus MTCC-96 infected in Balb/c mouse assessed as less dilated hepatic artery at 523.455 microM/Kg, iv for 7 days by hematoxylin and eosin staining based microscopic analysis", "format": "functional, organism-based", "conditions": "time 7.0 day"}, "Staphylococcus aureus [15]": {"test_system": "Staphylococcus aureus", "experiment": "In vivo antibacterial activity against Staphylococcus aureus MTCC-96 infected in Balb/c mouse assessed as hepatocyte distribution at 523.455 microM/Kg, iv for 7 days by hematoxylin and eosin staining based microscopic analysis", "format": "functional, organism-based", "conditions": "time 7.0 day"}, "Staphylococcus aureus [16]": {"test_system": "Staphylococcus aureus", "experiment": "In vivo antibacterial activity against Staphylococcus aureus MTCC-96 infected in Balb/c mouse assessed as less dilated portal vein in liver at 523.455 microM/Kg, iv for 7 days by hematoxylin and eosin staining based microscopic analysis", "format": "functional, organism-based", "conditions": "time 7.0 day"}}, "note": "Activity calls are given as the source filed them. The calls are words filed in the database; no cut-off is given here.", "data": [{"molecule": "CC1(C)S[C@@H]2[C@H](NC(=O)[C@H](N)c3ccccc3)C(=O)N2[C@H]1C(=O)O", "note": "[AMPICILLIN]", "values": [{"measurement": "MIC", "setting": "Staphylococcus aureus [1]", "result": 134, "unit": "µM"}, {"measurement": "Ratio", "setting": "Staphylococcus aureus [2]", "result": 4466}, {"measurement": "MIC", "setting": "Staphylococcus aureus [3]", "result": 2.1, "unit": "µM"}, {"measurement": "MIC", "setting": "Staphylococcus aureus [4]", "result": 0.03, "unit": "µM"}, {"measurement": "MIC", "setting": "Staphylococcus aureus [5]", "result": 2, "unit": "µM"}, {"measurement": "MIC", "setting": "Staphylococcus aureus [6]", "result": 134, "unit": "µM"}, {"measurement": "MIC", "setting": "Staphylococcus aureus [7]", "result": 134, "unit": "µM"}, {"measurement": "MIC", "setting": "Staphylococcus aureus [8]", "result": 0.03, "unit": "µM"}, {"measurement": "MIC", "setting": "Staphylococcus aureus [9]", "result": 0.03, "unit": "µM"}]}, {"molecule": "CC(C)[C@@H]1NC(=O)[C@H](C)OC(=O)[C@@H](C(C)C)NC(=O)[C@@H](C(C)C)OC(=O)[C@H](C(C)C)NC(=O)[C@H](C)OC(=O)[C@@H](C(C)C)NC(=O)[C@@H](C(C)C)OC(=O)[C@H](C(C)C)NC(=O)[C@H](C)OC(=O)[C@@H](C(C)C)NC(=O)[C@@H](C(C)C)OC1=O", "values": [{"measurement": "Activity", "setting": "Cell membrane", "result": "Active"}]}, {"molecule": "O=C(O)c1cn(C2CC2)c2cc(N3CCNCC3)c(F)cc2c1=O", "note": "[CIPROFLOXACIN]", "values": [{"measurement": "MIC", "setting": "Staphylococcus aureus [10]", "result": 0.45, "unit": "µM"}, {"measurement": "MIC", "setting": "Escherichia coli", "result": 0.51, "unit": "µM"}, {"measurement": "Activity", "setting": "Staphylococcus aureus [11]", "result": "inactive"}, {"measurement": "MIC", "setting": "Staphylococcus aureus [7]", "result": 1.5, "unit": "µM"}]}, {"molecule": "GENTAMICIN", "values": [{"measurement": "Activity", "setting": "Staphylococcus aureus [12]", "result": "Active"}, {"measurement": "Activity", "setting": "Staphylococcus aureus [13]", "result": 62, "unit": "CFU"}, {"measurement": "Activity", "setting": "Staphylococcus aureus [14]", "result": "Active"}, {"measurement": "Activity", "setting": "Staphylococcus aureus [15]", "result": "Active"}, {"measurement": "Activity", "setting": "Staphylococcus aureus [16]", "result": "Active"}]}]}
